Reference: patent US20080145313A1, “Compositions and Methods for the Treatment and Prevention of Neoplastic Disorders” (Genesis Research & Development Corporation Limited, priority 2006, published 2008)
Where two headings read alike, the source gives them in different places.

Key:
HCT-116 cells = test: 5FU toxicity in HCT-116 cells after TYMS or DHFR knockdown, SYBR Green; type: cell-based; conditions: 5FU continuous for 3 days, read-out: IC50 value of 5FU following TYMS knockdown, HCT-116
Method: (§1) HCT-116 and A549 cells were transfected as described above with 0.1, 1.0 and 10 nM of three TYMS-specific siRNAs, labeled TYMS-1, TYMS-2 and TYM-3 (SEQ ID NO: 4833-4835 (DNA), and SEQ ID NO: 5139-5141 (RNA), or 1.0 and 10 nM control siRNAs (809-ctrl; SEQ ID NO: 4805 (DNA), and SEQ ID NO: 5302 (RNA) and 81ctrl; SEQ ID NO: 4804 (DNA), and SEQ ID NO: 5301 (RNA)). HCT-116 and A549 cells were also similarly transfected with 0.1, 1.0 and 10 nM of three DHFR-specific siRNAs, labeled DHFR-1, DHFR-2 and DHFR-3 (SEQ ID NO: 4836-4838 (DNA), and SEQ ID NO: 5142-5144 (RNA)), or control siRNA (SEQ ID NO: 4805 (DNA), and SEQ ID NO: 5302 (RNA)). Twenty four hours after transfection, cells were exposed to 5FU using a serial dilution starting at 44 μM, in medium containing either 10% normal FCS or 10% dialyzed FCS as described above. 5FU treatment was continuous for 3 days, at which time cell growth was analyzed by measuring DNA content per well using the SYBR Green assay outlined above. […] This combinatorial inhibitory effect was further increased when experiments were done in medium containing dialyzed FCS (FIGS. 27D-F; FIGS. 28D-F).
(§2) FIGS. 29 and 30 show transfection with DHFR siRNA similarly led to a dose-dependent increase in growth inhibition above that caused by the drug alone (control siRNA-transfected cells) in HCT-116 cells (FIGS. 29A-C), and A549 cells (FIGS. 30A-C). This combinatorial inhibitory effect was further increased when experiments were done in medium containing dialyzed FCS (FIGS. 29D-F; FIGS. 30D-F). The changes in the IC50 value for 5FU in HCT-116 and A549 cells following TYMS knockdown by individual siRNAs are listed in Table 16 below.

A549 cells [1] = test: 5FU toxicity in A549 cells after TYMS or DHFR knockdown, SYBR Green; type: cell-based, human; conditions: 5FU continuous for 3 days, read-out: IC50 value of 5FU following TYMS knockdown, A549
Method: as §1, §2

A549 cells [2] = test: Growth inhibition of siRNA-transfected A549 cells, SYBR Green I DNA content; type: cell-based, human; conditions: 10 nM siRNA; for Growth Inhibition in A549 cells: DNA content 96 hours after transfection
Summary of the method: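 Growth read-out: cellular DNA quantified with SYBR Green I (485/535 nm) 96 h after transfection, cells frozen, thawed and lysed in PBS/1% Triton X-100, pH 7. Cells (A549, 5×10^3 cells/cm^2) received 10 nM siRNA by RNAiMAX; non-specific siRNA served as control; triplicate wells averaged.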

SK-Mel-5 cells = test: Growth inhibition of siRNA-transfected SK-Mel-5 cells, SYBR Green I DNA content; type: cell-based, human; conditions: 10 nM siRNA; standardized against control siRNA
Method: A549 cells (human lung cancer cell line; ATCC No. CCL-185), SK-MeI-5 cells (human melanoma cell line; ATCC No. HTB-70), MCF-7 cells (human adenocarcinoma cell line; ATCC No. HTB-22), HCT-116 cells (colorectal carcinoma; ATCC CCL-247) and HCT-116 p53 null cells (derived from ATCC No. CCL-247; Bunz et al., Science 282:1497-1501, 1998) were cultured in RPMI 1640 medium with 10% v/v heat-inactivated fetal calf serum (FCS). Cells were seeded at a density of 5×10^4 cells/cm^2 in multi-well tissue culture plates. Sequences of Stealth™ siRNA duplexes (Invitrogen) targeting human ribonucleotide reductase subunit 1 (SEQ ID NO: 22) and subunit 2 (SEQ ID NO; 38) are given in SEQ ID NO: 4830-4832 (DNA), and SEQ ID NO: 5136-5138 (RNA) for RRM1, and SEQ ID NO: 5306-5308 (DNA), and SEQ ID NO: 5303-5305 (RNA) for RRM2. siRNAs were transfected at different concentrations into cells using Lipofectamine™ RNAiMAX transfection reagent (Invitrogen). Non-specific siRNA (SEQ ID NO: 4804 and 4805 (DNA), and SEQ ID NO: 5301 and 5302 (RNA)) were used as controls. The cellular DNA content was measured using a SYBR Green I-based fluorometric assay at 24, 48, 72 and 96 hours after transfection (120 hours for the MCF-7 cells), as follows. At the indicated time points following reverse transfection, cells were harvested and frozen at −80° C. overnight. Cells were thawed and cell lysis buffer (phosphate-buffered saline (PBS) containing 1% Triton X-100, pH 7) and SYBR Green I (1:10^5 V/V; Invitrogen) was added to the wells and incubated overnight in the dark at 4° C.
The following day, cell lysates were mixed thoroughly, and DNA fluorescence was measured with a Wallac Victor^2 plate reader (Turku, Finland) set at an excitation frequency of 485 nm and measuring emission at 535 nm.
siRNA-mediated inhibition of cancer cell growth using siRNA targeting the YBX1 gene (SEQ ID NO: 92) was determined as follows. SK-MeI-5 cells were cultured in RPMI 1640 medium with 10% v/v heat-inactivated fetal calf serum. Cells were cultured as described above and reverse transfected with 0.1, 1.0, 10 and 40 nM (final concentration) of a pool of YBX1-targeting siRNAs (SEQ ID NO: 4982 and 4983 (DNA), and SEQ ID NO: 5277 and 5278 (RNA); referred to as 994 and 995 in FIG. 19) or a non-specific control (SEQ ID NO: 4804 (DNA), and SEQ ID NO: 5301 (RNA); referred to as Stealth 81 ctrl in FIG. 19), and cell growth determined after 120 h by measuring DNA fluorescence with a Wallac Victor^2 plate reader (Turku, Finland) set at an excitation frequency of 485 nm and measuring emission at 535 nm. Growth inhibition by the siRNA pool was standardized against the inhibition obtained with the control siRNAs.
siRNA-mediated RNAi was also determined on a panel of different cell lines. A549, SK-MeI-5, wt HCT-116, HCT-116−/−p53 and MCF-7 cells were transfected with 10 nM siRNAs targeting YBX-1 and growth inhibition determined as described above. The YBX1 siRNAs are given in SEQ ID NO: 4981 to 4985 (DNA) and SEQ ID NO: 5276-5280 (RNA). A non-specific siRNA (SEQ ID NO: 4804 (DNA) and SEQ ID NO: 5301 (RNA)) was used as control. Growth inhibition by the siRNAs, given in Table 14, was standardized against the inhibition obtained with the control siRNA.

YBX1 mRNA = YBX1 mRNA level by quantitative RT-PCR in A549 cells; type: cell-based, human; conditions: 10 nM siRNA; 24 h post-transfection
Method: A549 cells were transfected with 10 nM RRM1-1 (SEQ ID NO: 4830 (DNA), and SEQ ID NO: 5136 (RNA); light grey bar in FIG. 12A), RRM1-2 (SEQ ID NO: 4831 (DNA), and SEQ ID NO: 5137 (RNA); dark grey bar in FIG. 12A), RRM1-3 (SEQ ID NO: 4832 (DNA), and SEQ ID NO: 5138 (RNA); black bar in FIG. 12A) or control siRNA (SEQ ID NO: 4804 (DNA), and SEQ ID NO: 5301 (RNA)) (open bar in FIG. 12A) and relative mRNA levels quantified 24 h post-transfection. RNA was purified from cells using Trizol® extraction as per the manufacturer's protocol (Invitrogen). cDNA was prepared by digesting approximately 200 ng purified RNA with DNAse I (Invitrogen) for 15 minutes at room temperature, followed by 15 minutes at 65° C. in the presence of 25 mM EDTA. 30 ng random primers were added and incubated for 10 minutes at room temperature, 1 minute on ice; Superscript III polymerase (Invitrogen) was added in presence of 5 nM DTT (Sigma, St Louis, Mo.) and 1 mM deoxyribonucleotides (Invitrogen), and the reaction incubated at 25° C. for 5 minutes, followed by an hour at 55° C. cDNA was diluted 1:3 in 10 mM Tris pH 7.0, and quantitative RT-PCR carried out on an ABI Prism 7900HT (Applied Biosciences, Inc., Foster City, Calif.) using FastStart TaqMan SYBRGreen (Roche, Basel, Switzerland) and specific primers at 360 nM for RRM1 and RRM2 and the housekeeping genes HPRT and Lamin. Primer sequence pairs used for RRM1, RRM2, HPRT and lamin are given in SEQ ID NO: 4881 and 4882; 4883 and 4884; 4885 and 4886; 4887 and 4888 respectively.
A549 cells were transfected with 0.1, 1.0 and 10 nM siRNA (given in SEQ ID NO: 4981 to 4985 (DNA), and SEQ ID NO: 5276-5280 (RNA)) and the relative mRNA levels quantified 24 h post-transfection as described in Example 8.

[3] = cells transfected with 0.1 nM siRNA
[4] = cells transfected with 1 nM siRNA
[5] = cells transfected with 10 nM siRNA

## SEQ ID NO: 4805: non-specific control siRNA (chain 1 GGGAAATGTCTCCTCCCATTGATTT; chain 2 GGGAAAUGUCUCCUCCCAUUGAUUU; chemistry not given here; one strand in two spellings) [reference compound]
HCT-116 cells; [3]
  IC50: 650 nM
HCT-116 cells; [4]
  IC50: 600 nM
HCT-116 cells; [5]
  IC50: 600 nM
A549 cells [1]; [3]
  IC50: 820 nM
A549 cells [1]; [4]
  IC50: 670 nM
A549 cells [1]; [5]
  IC50: 640 nM

## SEQ ID NO: 4981: siRNA targeting YBX1 (chain 1 TGGATAGCGTCTATAATGGTTACGG; chain 2 UGGAUAGCGUCUAUAAUGGUUACGG; chemistry not given here; one strand in two spellings)
A549 cells [2]; standardized against control siRNA
  growth inhibition, A549 cells: + (At least 20% inhibition)
SK-Mel-5 cells
  growth inhibition, SK-Mel-5 cells: ++ (At least 50% inhibition)
YBX1 mRNA
  YBX1-specific reduction of mRNA levels in A549 cells: ++ (At least 50% inhibition)

## SEQ ID NO: 4835: siRNA targeting TYMS (chain 1 ATTCAGGTAAATATGTGCATCTCCC; chain 2 AUUCAGGUAAAUAUGUGCAUCUCCC; chemistry not given here; one strand in two spellings)
A549 cells [2]
  Growth Inhibition in A549 cells: ++ (inhibits by at least 75%)
HCT-116 cells; [3]
  IC50: 320 nM
HCT-116 cells; [4]
  IC50: 190 nM
HCT-116 cells; [5]
  IC50: 110 nM
A549 cells [1]; [3]
  IC50: 610 nM
A549 cells [1]; [4]
  IC50: 130 nM
A549 cells [1]; [5]
  IC50: 200 nM

## SEQ ID NO: 4834: siRNA targeting TYMS (chain 1 TGTGGATCCCTTGATAAACCACAGC; chain 2 UGUGGAUCCCUUGAUAAACCACAGC; chemistry not given here; one strand in two spellings)
A549 cells [2]
  Growth Inhibition in A549 cells: ++ (inhibits by at least 75%)
HCT-116 cells; [3]
  IC50: 410 nM
HCT-116 cells; [5]
  IC50: 100 nM
A549 cells [1]; [3]
  IC50: 590 nM
A549 cells [1]; [4]
  IC50: 210 nM
A549 cells [1]; [5]
  IC50: 150 nM
